# In patent US10214508B2, “Nitrogen-containing heterocyclic compound” (Takeda Pharmaceutical Company Limited, priority 2014, dated 2019):
# Biological target: T1, human M1 receptor (hCHRM1) (Homo sapiens, UniProt P11229)
# T1 construct: expressed in transfected cells
# T1 sequence (P11229 1-460): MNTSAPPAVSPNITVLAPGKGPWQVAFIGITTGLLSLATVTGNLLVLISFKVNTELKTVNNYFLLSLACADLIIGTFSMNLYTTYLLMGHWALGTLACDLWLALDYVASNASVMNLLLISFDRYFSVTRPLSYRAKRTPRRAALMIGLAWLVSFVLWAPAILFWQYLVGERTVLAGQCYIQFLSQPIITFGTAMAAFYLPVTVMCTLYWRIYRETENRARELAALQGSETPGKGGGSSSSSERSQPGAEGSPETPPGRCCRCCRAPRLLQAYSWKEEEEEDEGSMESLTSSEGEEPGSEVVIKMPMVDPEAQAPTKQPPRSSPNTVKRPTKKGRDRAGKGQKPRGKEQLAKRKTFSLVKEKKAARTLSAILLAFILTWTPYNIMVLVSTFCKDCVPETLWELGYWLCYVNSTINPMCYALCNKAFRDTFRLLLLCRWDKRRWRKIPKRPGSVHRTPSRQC
# Experiment: Measurement of M1 receptor positive allosteric modulator (M1PAM) activity, calcium fluorescence (FLIPRtetra)
# Format: cell-based
# Conditions: 10 μM test compound with acetylcholine at EC20 (final 0.6-0.8 nM); 100% = acetylcholine 1 μM, 0% = DMSO; CHO-K1 cells expressing hCHRM1
# Experimental: Measurement of M1 Receptor Positive Allosteric Modulator (M1PAM) Activity
# The activity of a test compound in the presence of acetylcholine at EC20 concentration (final concentration 0.6-0.8 nM), which affords an action corresponding to about 20% of the maximum activity, was measured as PAM activity. The method is as follows. CHO-K1 cells stably expressing a human M1 receptor (hCHRM1) were plated on a 384-well black clear bottom plate (BD Falcon) at 5,000 cells/well, and cultured in an incubator at 37° C., 5% CO2 for 1 day. The medium in the cell plate was removed, and assay buffer A containing calcium indicator (Recording medium (DOJINDO LABORATORIES), 0.1% BSA (Wako Pure Chemical Industries, Ltd.), 2.5 μg/mL Fluo-4 AM (DOJINDO LABORATORIES), 0.08% Pluronic F127 (DOJINDO LABORATORIES), 1.25 mM probenecid (DOJINDO LABORATORIES)) was added at 30 μL/well. The cells were left standing in the incubator at 37° C., 5% CO2 for 30 min, and further left standing at room temperature for 30 min. A test compound prepared by diluting with assay buffer B (HBSS (Invitrogen), 20 mM HEPES (Invitrogen), 0.1% BSA) containing 2.4-3.2 nM acetylcholine was added at 10 μL/well, and the fluorescence was measured by FLIPRtetra (Molecular Devices) for 1 min every for 1 second. With the definition that the amount of change in the fluorescence on addition of acetylcholine (final concentration 1 μM) is 100% and that on addition of DMSO instead of a test compound is 0%, the activity (%) of the test compound was calculated, and the inflection point in the concentration-dependent curve of the test compound was calculated as IP values.
row,Structure (SMILES),activity (%) at 10 μM [%]
1,"Cc1cnc(C(=O)NC2CC(F)(F)C2)cc1Cc1ccc(-c2ccn(C)n2)cc1 [Example 30, N-(3,3-difluorocyclobutyl)-5-methyl-4-(4-(1-methyl-1H-pyrazol-3-yl)benzyl)pyridine-2-carboxamide]",85
2,"Cc1cnc(C(=O)NC2CCOC2)cc1Cc1ccc(-c2ccn(C)n2)cc1 (stereo not shown) [Example 31, 5-methyl-4-(4-(1-methyl-1H-pyrazol-3-yl)benzyl)-N-(tetrahydrofuran-3-yl)pyridine-2-carboxamide]",84
3,"Cc1cnc(C(=O)NC2CCCOC2)cc1Cc1ccc(-c2ccn(C)n2)cc1 (stereo not shown) [Example 32, 5-methyl-4-(4-(1-methyl-1H-pyrazol-3-yl)benzyl)-N-(tetrahydro-2H-pyran-3-yl)pyridine-2-carboxamide]",101
4,"Cc1cnc(C(=O)NC2CCC(F)(F)CC2)cc1Cc1ccc(-c2ccn(C)n2)cc1 [Example 33, N-(4,4-difluorocyclohexyl)-5-methyl-4-(4-(1-methyl-1H-pyrazol-3-yl)benzyl)pyridine-2-carboxamide]",71
5,"Cc1cnc(C(=O)N[C@H]2CCC[C@@H]2O)cc1Cc1ccc(-n2cccn2)nc1 [Example 34, N-((1S,2S)-2-hydroxycyclopentyl)-5-methyl-4-((6-(1H-pyrazol-1-yl)pyridin-3-yl)methyl)pyridine-2-carboxamide]",96
6,"Cc1cnc(C(=O)N[C@H]2CCCC[C@@H]2O)cc1Cc1ccc(-n2cccn2)nc1 [Example 35, N-((1S,2S)-2-hydroxycyclohexyl)-5-methyl-4-((6-(1H-pyrazol-1-yl)pyridin-3-yl)methyl)pyridine-2-carboxamide]",102
7,"Cc1cnc(C(=O)N[C@H]2COCC[C@@H]2O)cc1Cc1ccc(-n2cccn2)cc1F [Example 36, 1,5-anhydro-2,4-dideoxy-2-(((4-(2-fluoro-4-(1H-pyrazol-1-yl)benzyl)-5-methylpyridin-2-yl)carbonyl)amino)-L-threo-pentitol]",95
8,"O=C(N[C@H]1CCC[C@@H]1O)c1cc(Cc2ccc(-n3cccn3)cc2)c(C(F)F)cn1 [Example 37, 5-(difluoromethyl)-N-((1S,2S)-2-hydroxycyclopentyl)-4-(4-(1H-pyrazol-1-yl)benzyl)pyridine-2-carboxamide]",106
9,"O=C(N[C@H]1CCCC[C@@H]1O)c1cc(Cc2ccc(-n3cccn3)cc2)c(C(F)F)cn1 [Example 38, 5-(difluoromethyl)-N-((1S,2S)-2-hydroxycyclohexyl)-4-(4-(1H-pyrazol-1-yl)benzyl)pyridine-2-carboxamide]",101
10,"O=C(N[C@H]1COCC[C@@H]1O)c1cc(Cc2ccc(-n3cccn3)cc2)c(C(F)F)cn1 [Example 39, 1,5-anhydro-2,4-dideoxy-2-(((5-(difluoromethyl)-4-(4-(1H-pyrazol-1-yl)benzyl)pyridin-2-yl)carbonyl)amino)-L-threo-pentitol]",100
11,"Cn1ccc(-c2ccc(Cc3cc(C(=O)N[C@H]4COCC[C@@H]4O)ncc3C(F)F)cc2)n1 [Example 40, 1,5-anhydro-2,4-dideoxy-2-(((5-(difluoromethyl)-4-(4-(1-methyl-1H-pyrazol-3-yl)benzyl)pyridin-2-yl)carbonyl)amino)-L-threo-pentitol]",95
12,"Cn1ccc(-c2ccc(Cc3cc(C(=O)N[C@H]4CCCC[C@@H]4O)ncc3C(F)F)cc2)n1 [Example 41, 5-(difluoromethyl)-N-((1S,2S)-2-hydroxycyclohexyl)-4-(4-(1-methyl-1H-pyrazol-3-yl)benzyl)pyridine-2-carboxamide]",95
13,"C=Cc1cnc(C(=O)N[C@H]2CCCC[C@@H]2O)cc1Cc1ccc(-n2cccn2)cc1 [Example 42, N-((1S,2S)-2-hydroxycyclohexyl)-4-(4-(1H-pyrazol-1-yl)benzyl)-5-vinylpyridine-2-carboxamide]",106
14,"CCc1cnc(C(=O)N[C@H]2CCCC[C@@H]2O)cc1Cc1ccc(-n2cccn2)cc1 [Example 43, 5-ethyl-N-((1S,2S)-2-hydroxycyclohexyl)-4-(4-(1H-pyrazol-1-yl)benzyl)pyridine-2-carboxamide]",92
15,"CCc1cnc(C(=O)N[C@H]2COCC[C@@H]2O)cc1Cc1ccc(-n2cccn2)cc1 [Example 44, 1,5-anhydro-2,4-dideoxy-2-(((5-ethyl-4-(4-(1H-pyrazol-1-yl)benzyl)pyridin-2-yl)carbonyl)amino)-L-threo-pentitol]",92
16,"O=C(N[C@H]1CCCC[C@@H]1O)c1cc(Cc2ccc(-n3cccn3)cc2)ccn1 [Example 45, N-((1S,2S)-2-hydroxycyclohexyl)-4-(4-(1H-pyrazol-1-yl)benzyl)pyridine-2-carboxamide]",102
17,"O=C(N[C@H]1CCCC[C@@H]1O)c1cc(Cc2ccc(-n3cccn3)cc2)c(C2CC2)cn1 [Example 46, 5-cyclopropyl-N-((1S,2S)-2-hydroxycyclohexyl)-4-(4-(1H-pyrazol-1-yl)benzyl)pyridine-2-carboxamide]",101
18,"O=C(N[C@H]1COCC[C@@H]1O)c1cc(Cc2ccc(-n3cccn3)cc2)c(C2CC2)cn1 [Example 47, 1,5-anhydro-2-(((5-cyclopropyl-4-(4-(1H-pyrazol-1-yl)benzyl)pyridin-2-yl)carbonyl)amino)-2,4-dideoxy-L-threo-pentitol]",96
19,"Cc1cnc(C(=O)N[C@H]2CCCC[C@@H]2O)cc1Cc1ccc(-n2cccn2)cc1 [Example 48, N-((1S,2S)-2-hydroxycyclohexyl)-5-methyl-4-(4-(1H-pyrazol-1-yl)benzyl)pyridine-2-carboxamide]",106
20,"Cc1cnc(C(=O)N[C@H]2COCC[C@@H]2O)cc1Cc1ccc(-n2cccn2)cc1 [Example 49, 1,5-anhydro-2,4-dideoxy-2-(((5-methyl-4-(4-(1H-pyrazol-1-yl)benzyl)pyridin-2-yl)carbonyl)amino)-L-threo-pentitol]",99
21,"Cc1cnc(C(=O)N[C@H]2CCC[C@@H]2O)cc1Cc1ccc(-n2cccn2)cc1 [Example 50, N-((1S,2S)-2-hydroxycyclopentyl)-5-methyl-4-(4-(1H-pyrazol-1-yl)benzyl)pyridine-2-carboxamide]",105
22,"Cn1ccc(-c2ccc(Cc3cc(C(=O)N[C@H]4CCCC[C@@H]4O)ncc3Cl)cc2)n1 [Example 51, 5-chloro-N-((1S,2S)-2-hydroxycyclohexyl)-4-(4-(1-methyl-1H-pyrazol-3-yl)benzyl)pyridine-2-carboxamide]",95
23,"Cn1ccc(-c2ccc(Cc3cc(C(=O)N[C@H]4CCCC[C@@H]4O)ncc3Cl)cc2)n1 [Example 52, 5-chloro-N-((1S,2S)-2-hydroxycyclohexyl)-4-(4-(1-methyl-1H-pyrazol-3-yl)benzyl)pyridine-2-carboxamide]",100
24,"O=C(N[C@H]1CCC[C@@H]1O)c1cc(Cc2ccc(-n3cccn3)cc2F)c(Cl)cn1 [Example 53, 5-chloro-4-(2-fluoro-4-(1H-pyrazol-1-yl)benzyl)-N-((1S,2S)-2-hydroxycyclopentyl)pyridine-2-carboxamide]",93
25,"O=C(N[C@H]1CCCC[C@@H]1O)c1cc(Cc2ccc(-n3cccn3)cc2F)c(Cl)cn1 [Example 54, 5-chloro-4-(2-fluoro-4-(1H-pyrazol-1-yl)benzyl)-N-((1S,2S)-2-hydroxycyclohexyl)pyridine-2-carboxamide]",99
26,"O=C(N[C@H]1CCCC[C@@H]1O)c1cc(Cc2ccc(-n3cccn3)cc2)c(F)cn1 [Example 55, 5-fluoro-N-((1S,2S)-2-hydroxycyclohexyl)-4-(4-(1H-pyrazol-1-yl)benzyl)pyridine-2-carboxamide]",97
27,"COc1cnc(C(=O)N[C@H]2COCC[C@@H]2O)cc1Cc1ccc(-n2cccn2)cc1 [Example 56, 1,5-anhydro-2,4-dideoxy-2-(((5-methoxy-4-(4-(1H-pyrazol-1-yl)benzyl)pyridin-2-yl)carbonyl)amino)-L-threo-pentitol]",103
28,"COc1cnc(C(=O)N[C@H]2CCCC[C@@H]2O)cc1Cc1ccc(Cl)nc1 [Example 57, 4-((6-chloropyridin-3-yl)methyl)-N-(2-trans-hydroxycyclohexyl)-5-methoxypyridine-2-carboxamide]",95
